Laboratory results reported in patent publication US20150071918A1, “PEPTIDES FOR THE TREATMENT OF CANCER” (H. LEE MOFFITT CANCER CENTER AND RESEARCH INSTITUTE, INC., priority 2012, published 2015).
*1 amine or outer side, *2 acyl side, *3 side chain or, on linkers, in order; H or OH if unused. Where a SMILES comes first, the peptide text is derived from it. Bridges are numbered along the chain shown (N, C = ends). [ ]: non-standard residue; d: D form. The star is where a group is joined. dProlinol(O-CH2CO) = O=C(COC[C@H]1CCCN1[*:1])[*:2]; N(2-Aminoethyl)Gly = O=C(CN(CCN[*:3])[*:1])[*:2]; Nle = CCCC[C@H](N)C(=O)O; Ms = CS(=O)(=O)*

What was measured:
Format in all cases: cell-based
[1] = test system: lung cancer (LC) cell lines; test: High-throughput CellTiter-Blue cell viability assay in lung cancer cell lines; details: IC50 values shown only in figure
Experimental: FIG. 35 is a graph showing IC-50 levels of 24 lung cancer (LC) cell lines treated with cyclized HYD1 (MTI-101). The activity of c-HYD1 was screened using a high-throughput CellTiter-Blue cell viability assay. Cell viability was assessed by the ability of the remaining viable cells to bioreduce resazurin to resorufin. Resazurin is dark blue in color and has little intrinsic fluorescence until it is reduced to resorufin (579 nm Ex/584 nm Em). The change in fluorescence was measured with a Synergy 4 microplate reader (Bio-Tek Instruments, Inc.). […] IC50s were determined as the concentration of drug required for 50% reduction in growth/viability. Shown is the mean IC50 value for each lung cancer cell line tested. Experiments were repeated 2-3 times.
FIG. 67. […] IC50 values were calculated from survival curves and the mean value is represented (n=2 independent experiments).

[2] = test system: cleaved caspase-3, ATP in NCI-H929 and U266 MM cells; test: Mechanism of cell death in MM cells (cleaved caspase-3, ATP, ROS)
Experimental: FIGS. 56A-56F. […] FIG. 56A: Chemical structure of MTI-101 (also referred to herein as HM-27). FIG. 56B: Direct comparison of HYD1 and MTI-101 in NCI-H929 cells. […] FIG. 56F: NCI-H929 and U266 cells were treated with MTI-101 or tert-butyl hydrogen peroxide as a positive control for 1 hour, stained with CellRox Green for 30 minutes and washed, with FACS analysis to determine ROS production. All experiments were run in triplicate and repeated 3 independent times. Statistical significance using ANOVA, *P≦0.05. Similar to linear peptide HYD1, the cyclized peptide MTI-101 induces caspase independent cell death in myeloma cell lines.

[3] = test system: H929-60 cell line; test: Cross-resistance in cell line selected for resistance to HYD1; details: H929-60, selected for resistance to HYD1

Structure (SMILES): CCCC[C@@H]1NC(=O)CN(S(C)(=O)=O)CCNC(=O)[C@H](CCCCN)NC(=O)[C@H](CC(C)C)NC(=O)[C@H](CCCCN)NC(=O)[C@H](CC(C)C)NC(=O)[C@H](CCCCN)NC(=O)COC[C@H]2CCCN2C(=O)[C@H](Cc2c[nH]c3ccccc23)NC(=O)[C@H](C)NC(=O)[C@H](C(C)C)NC(=O)[C@H](C(C)C)NC1=O [MTI-101] (Ms-[N(2-Aminoethyl)Gly][Nle]VVAW[dProlinol(O-CH2CO)]KLKLK; lactam 1-C)
- growth of lung cancer cell lines [1]: inhibits the growth of several lung cancer cell lines
- cleaved caspase-3 activity in MM cells [2]: does not induce cleaved caspase-3 activity
- total cellular ATP in MM cells [2]: reduces total cellular levels of ATP in NCI-H929 and U266 cells
- cross-resistance [3]: cross-resistance in the H929-60 cell line
